According to patent US20080194646A1, “Methods For Avoiding Edema in the Treatment of Metabolic, Inflammatory, and Cardiovascular Disorders” (priority 2005, published 2008):

What was measured:
cytochrome P450 2C9 = cytochrome P450 2C9 (Homo sapiens, UniProt P11712); conditions: comparison of enantiomers and racemate; cited from earlier work
C57BL/6j ob/ob Mice [1] = assay: anti-diabetic activity in C57BL/6j ob/ob mice (Example 20); assay type: in vivo; conditions: oral gavage once a day for 1-4 days
Description: The anti-diabetic activities of the compounds were evaluated in the C57BL/6j ob/ob Mice model. Male, 7-9 weeks old, C57BL/6J ob/ob mice were purchased from The Jackson Laboratory (Bar Harbor, Me., USA). Animals were housed (4-5 mice/cage) under standard laboratory conditions at 22±3° C. temperature and 50±20% relative humidity, and were maintained on a diet of Purina rodent chow and water ad libitum. Prior to treatment, blood was collected from the tail vein of each animal. Mice that had non-fasting plasma glucose levels between 250 and 500 mg/dl were used. Each treatment group consisted of 8-10 mice that were distributed so that the mean glucose levels were equivalent in each group at the start of the study. Mice were dosed orally by gavage once a day for 1-4 days with vehicle and one or more dose of test compound at a dose ranging from 5 to 125 mg/kg. Compounds were delivered in a liquid formulation containing 5% (v/v) dimethyl sulfoxide (DMSO), 1% (v/v) Tween 80® and 0.9% (w/v) methylcellulose. The gavage volume was 10 ml/kg. […] Food intake and body weight were measured daily. Plasma glucose concentrations were determined colorimetrically using a commercial glucose oxidase method (Sigma Chemical Co, St. Louis, Mo., USA). Significant difference between groups (comparing drug-treated to vehicle-treated) was evaluated using the Student unpaired t-test. Table 1 provides the relative potency of some selected compounds of the invention.

C57BL/6j ob/ob Mice [2] = assay: anti-diabetic activity in C57BL/6j ob/ob mice (Example 13); assay type: in vivo; conditions: oral gavage once a day for 1-4 days; for Potency: glucose lowering, 5 to 125 mg/kg, plasma glucose 6 hours after each dose
Description: The anti-diabetic activities of the compounds were evaluated in the C57BL/6j ob/ob Mice model.
Male, 7-9 weeks old, C57BL/6J ob/ob mice were purchased from The Jackson Laboratory (Bar Harbor, Me., USA). Animals were housed (4-5 mice/cage) under standard laboratory conditions at 22±3° C. temperature and 50±20% relative humidity, and were maintained on a diet of Purina rodent chow and water ad libitum. Prior to treatment, blood was collected from the tail vein of each animal. Mice that had non-fasting plasma glucose levels between 250 and 500 mg/dl were used. Each treatment group consisted of 8-10 mice that were distributed so that the mean glucose levels were equivalent in each group at the start of the study. Mice were dosed orally by gavage once a day for 1-4 days with vehicle and one or more dose of test compound at a dose ranging from 5 to 125 mg/kg. Compounds were delivered in a liquid formulation containing 5% (v/v) dimethyl sulfoxide (DMSO), 1% (v/v) Tween 80® and 0.9% (w/v) methylcellulose. The gavage volume was 10 ml/kg. Blood samples were taken at 6 hours after the each dose and analyzed for plasma glucose. Food intake and body weight were measured daily. Plasma glucose concentrations were determined colorimetrically using a commercial glucose oxidase method (Sigma Chemical Co, St. Louis, Mo., USA). Significant difference between groups (comparing drug-treated to vehicle-treated) was evaluated using the Student unpaired t-test.
The following table summarizes the anti-diabetic effects of selected compounds of the present invention and provides their relative potency. […] For example, a compound at 25 mg/kg that lowered the animal glucose level from 400 mg/dL (vehicle group value) to 250 mg/dL, is assigned the potency of +++.

Chain of cytochrome P450 2C9 (P11712 whole entry): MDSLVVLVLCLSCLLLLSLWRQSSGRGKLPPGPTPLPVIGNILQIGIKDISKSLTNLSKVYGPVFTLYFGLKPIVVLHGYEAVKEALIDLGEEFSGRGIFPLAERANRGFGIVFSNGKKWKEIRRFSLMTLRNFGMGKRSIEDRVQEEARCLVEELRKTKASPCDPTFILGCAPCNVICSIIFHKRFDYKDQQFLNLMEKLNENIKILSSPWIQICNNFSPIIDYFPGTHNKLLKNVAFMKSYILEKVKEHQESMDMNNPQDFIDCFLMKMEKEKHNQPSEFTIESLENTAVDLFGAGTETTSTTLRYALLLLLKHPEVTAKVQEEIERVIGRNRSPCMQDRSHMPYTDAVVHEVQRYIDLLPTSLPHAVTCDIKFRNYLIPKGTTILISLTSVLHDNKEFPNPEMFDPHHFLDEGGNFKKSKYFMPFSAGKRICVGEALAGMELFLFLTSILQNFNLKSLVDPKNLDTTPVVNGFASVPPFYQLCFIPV

| SMILES | inhibition of cytochrome P450 2C9 (cytochrome P450 2C9) | Insulin Level compared with vehicle (C57BL/6j ob/ob Mice [1]) | Potency (C57BL/6j ob/ob Mice [2]) | Insulin Level compared with vehicle (C57BL/6j ob/ob Mice [2]) |
| --- | --- | --- | --- | --- |
| O=C(O)C(Oc1cccc(C(F)(F)F)c1)c1ccc(Cl)cc1 (racemic) [racemic halofenic acid, 4-Chlorophenyl-(3-trifluoromethylphenoxy)-acetic Acid] | found to inhibit cytochrome P450 2C9 | – | – | – |
| O=C(O)C(Oc1cccc(C(F)(F)F)c1)c1ccc(Cl)cc1 (single isomer, unassigned; (+)) [(+) enantiomer of halofenic acid, (+) 4-chlorophenyl-(3-trifluoromethylphenoxy)-acetic acid] | quite potent | – | – | – |
| CC(=O)NCCOC(=O)C(Oc1cc(C(F)(F)F)cc(C(F)(F)F)c1)c1ccc(C(F)(F)F)cc1 (stereo not shown) [Compound 143] | – | Lower | – | – |
| CC(=O)NCCOC(=O)C(Oc1cccc(C(F)(F)F)c1)c1cccc(C(F)(F)F)c1 (stereo not shown) [Compound 144] | – | Lower | – | – |
| CC(=O)NCCOC(=O)C(Oc1ccc(C(F)(F)F)cc1)c1ccc(C(F)(F)F)cc1 (stereo not shown) [Compound 145] | – | Lower | – | – |
| CC(=O)NCCOC(=O)C(Oc1ccccc1C(F)(F)F)c1ccc(C(F)(F)F)cc1 (stereo not shown) [Compound 146] | – | Lower | – | – |
| CC(=O)NCCOC(=O)C(Oc1cccc(C(F)(F)F)c1)c1ccccc1C(F)(F)F (stereo not shown) [Compound 147] | – | Lower | – | – |
| O=C(O)C(Oc1ccccc1-c1nc2ccccc2o1)c1ccc(Cl)cc1 (stereo not shown) [Compound I-1] | – | – | ++ (effective for glucose lowering at a dose of >25 mg/kg but <125 mg/kg) | Lower |
| O=C(O)C(Oc1ccccc1-c1nc2ccccc2o1)c1cccc(C(F)(F)F)c1 (stereo not shown) [Compound I-3] | – | – | + (effective for glucose lowering at the dose of ≧125 mg/kg) | Lower |
| O=C(O)C(Oc1ccc(C(F)(F)F)cc1-c1nc2ccccc2o1)c1cccc(C(F)(F)F)c1 (stereo not shown) [Compound I-89] | – | – | +++ (effective for glucose lowering at a dose of ≦25 mg/kg) | Lower |
| O=C(O)C(Oc1ccc(Cl)cc1-c1nc2ccccc2o1)c1ccc(Cl)cc1 (stereo not shown) [Compound I-190] | – | – | +++ (effective for glucose lowering at a dose of ≦25 mg/kg) | Lower |
| O=C(O)C(Oc1ccc(Cl)cc1-c1nc2ccccc2o1)c1cccc(C(F)(F)F)c1 (stereo not shown) [Compound I-191] | – | – | +++ (effective for glucose lowering at a dose of ≦25 mg/kg) | Lower |
| COc1ccc(C(Oc2ccc(Cl)cc2-c2nc3ccccc3o2)C(=O)O)cc1 (stereo not shown) [Compound I-193] | – | – | +++ (effective for glucose lowering at a dose of ≦25 mg/kg) | Lower |
| O=C(O)C(Oc1ccc(Cl)cc1-c1nc2ccccc2o1)c1cccc(Cl)c1 (stereo not shown) [Compound I-194] | – | – | +++ (effective for glucose lowering at a dose of ≦25 mg/kg) | Lower |
| O=C(O)C(Oc1ccc(C(F)(F)F)cc1-c1nc2ccccc2o1)c1ccccc1 (stereo not shown) [Compound I-369] | – | – | +++ (effective for glucose lowering at a dose of ≦25 mg/kg) | Lower |
| O=C(O)C(Oc1ccc(C(F)(F)F)cc1-c1nc2ccccc2o1)c1ccc(Cl)cc1 (stereo not shown) [Compound I-372] | – | – | +++ (effective for glucose lowering at a dose of ≦25 mg/kg) | Lower |
| CC(Oc1ccc(C(F)(F)F)cc1-c1nc2ccccc2o1)(C(=O)O)c1ccccc1 (stereo not shown) [Ia-365] | – | – | +++ (effective for glucose lowering at a dose of ≦25 mg/kg) | Lower |
| CC(Oc1ccc(C(F)(F)F)cc1-c1nc2ccccc2o1)(C(=O)O)c1ccccc1 (stereo not shown) [Ia-366] | – | – | +++ (effective for glucose lowering at a dose of ≦25 mg/kg) | – |
